Consider 8 compounds from paper PMC3246456, “An Immunoassay for Dibutyl Phthalate Based on Direct Hapten Linkage to the Polystyrene Surface of Microtiter Plates” (PLoS ONE, 2011).

Experiment [1] deals with MAb. The experiment can be described thus: Binding of MAb to hapten linked on polystyrene surface. The conditions noted are these: carboxylated hapten linked to polystyrene surface; absorbance at 492 nm too low. Also on record: species or system mouse. The source says: Although methods had already been reported for linking hapten to polystyrene surface, [11], it was not applicable to the hapten coated ELISA for DBP because the MAb produced hardly bound to the carboxylated hapten DBCP on polystyrene (The absorbance value at 492 nm was too low.). Thus it was needed to immobilize the aminated hapten DBAP to the surface of polystyrene. Holthues et al had linked an aminated hapten ABA–atrazine to a glutaraldehyde polymer network directly bound to polystyrene surface and developed very sensitive ELISA to detect terbutryn. However, it was a failure to establish hapten coated ELISA for DBP based on covalently linking DBAP to a glutaraldehyde polymer network on polystyrene surface. […] The hapten coated format presented is proposed as generally applicable, because the carboxyl on modified microtiter plate surface enables stable immobilization of aminated or hydroxylated hapten through EDC.

Experiment [2] concerns anti-DBP MAb. Nature of the experiment: Hapten coated icELISA (DBAP directly linked to polystyrene). It is filed as binding, mouse. The conditions noted are these: for inhibition: at 10 mg/mL; for antibody recognition: specificity of MAb; for CR (cross-reactivity): CR (%) = IC50 DBP/IC50 analogue×100. As to the method: (§1) An icELISA was used to assess the sensitivity of the MAb to free DBP and the cross-reactivities of structurally related compounds to the antibody. For competition, 50 µL of standards or diluted samples in assay buffer were placed in the wells, and 50 µL of the anti-DBP MAb diluted with assay buffer was added. After incubated for 1.5 h at 25°C, the plate was washed. The following procedure was followed as described for the inELISA. […] Standards and samples were run in triplicate wells, and the mean absorbance values were processed. Standard curves were obtained by plotting absorbance against the logarithm of analyte concentration and fitted with a logistic four-parameter equation y = (A−D)/[1+(x/C)^B]+D, where A is the absorbance value with no analyte present, B is the slope near the midpoint inhibition concentration, C is the concentration of analyte giving 50% inhibition (IC50), and D is the minimum absorbance value at infinite concentration of the analyte, [21]. Dynamic range was established between the concentrations producing 20% and 80% inhibition (IC20–IC80 or 80%–20% of the maximum response). Limit of detection (LOD) was determined as the concentration corresponding to 10% inhibitory concentration (IC10 or 90% of the maximum response) [22]–[24].
Polystyrene surface was first carboxylated by permanganate oxidation. Microwells were filled with a solution of 5% KMnO4 in 0.6 mol/L H2SO4 (150 µL/well) for 60 min at 60°C. The plates were washed with 6 mol/L HCl (3×5 min, 200 µL/well) to remove the brown manganese oxide and rinsed three times with distilled water giving polystyrene-COOH microwells [25]. Then 150 µL of EDC and hapten DBAP in 0.1 mol/L MES buffer (pH 5.0) were placed in the wells and incubated overnight under shaking (Fig. 2). The subsequent procedures were the same as conjugate coated inELISA or icELISA under optimal condition. The essential steps in direct attachment of hapten DBAP to polystyrene surface such as concentrations of EDC and conjugation temperatures were determined by the amount of antibody on the modified polystyrene surface measured by inELISA with coating concentration of 2 µg/mL DBAP and MAb dilution of 1∶2000. The optimal coating concentration of DBAP and dilution of MAb were determined by checkerboard titration.
To determine the specificity of MAb produced, the ability of the MAb to recognize several structurally related compounds (analogues) was tested by performing hapten coated icELISA and determining their respective IC50 values. The cross-reactivity (CR) values were calculated according to the following equation CR (%) = IC50 DBP/IC50 analogue×100 [23], [26].

For experiment [3], the system named is antibodies in hybridoma culture supernatants. Nature of the experiment: Hybridoma screening by icELISA with 1 µg/mL DBAP-BSA. The conditions noted are these: three competitive clones of 352 wells; coated antigen 1 µg/mL DBAP-BSA. It counts as binding, mouse. The protocol: SP 2/0 murine myeloma cells were cultured in DMEM supplemented with 15% fetal bovine serum and 1% penicillin–streptomycin. Cell fusion and hybridoma culture procedures were carried out essentially as described by James. Mice splenocytes were mixed with SP 2/0 cells at the ratio of 5∶1 and centrifuged at 450 g for 5 min. One milliliters of polyethylene glycol solution at 37°C was dropped to the cell pellet over 1 min. The cell pellet was rotated for further 1 min, then 1 mL of DMEM added over 1 min, 2 mL of DMEM over 2 min. Finally, 12 mL was added over 2 min. After centrifugation at 450 g for 5 min, the cells were pelleted again, resuspended in HAT medium (DMEM containing 15% fetal bovine serum, 1% penicillin–streptomycin and 2% HAT media supplement) and plated into 96-well plates in which normal mouse peritoneal exudate cells (as feeder cells) had already been cultured 1 day before fusion. The colonies were fed every fifth day with freshly prepared HAT medium. […] The ratio of both absorbances was used as the criterion for selecting the best antibody-secreting clones. […]
An icELISA was used to assess the sensitivity of the MAb to free DBP and the cross-reactivities of structurally related compounds to the antibody. […] Standards and samples were run in triplicate wells, and the mean absorbance values were processed. […]

Experiment [4] deals with polyclonal antibody. Details: method as in PMID 16947007. The conditions noted are these: cited from earlier work.
Experiment [5] concerns anti-DBP MAb. Nature of the experiment: Conjugate coated indirect competitive ELISA (icELISA), DBAP-BSA coated. It counts as binding, mouse. The protocol:
Checkerboard titration, in which purified MAb was titrated against varying amounts of the coating hapten-conjugate was used to measure the reactivity of antibodies and to select an appropriate coating concentrations and antibody dilutions for icELISA [19]. The checkerboard assays were performed with inELISA. Microtiter plates were coated with 100 µL/well of hapten-protein conjugates (0, 0.125, 0.25, 0.5, and 1 µg/mL) in 0.05 mol/L carbonate buffer (pH 9.6) and incubated overnight at 4°C. The plates were washed three times with PBST (0.01 mol/L PBS containing 0.05% Tween-20, pH 7.4, 200 µL/well) and were blocked with 3% (w/v) skim milk powder (SMP) in PBS (250 µL/well) for 1 h at 37°C. After another washing step, 100 µL/well of purified anti-DBP MAb (1∶1000, 1∶2000, 1∶4000, 1∶8000, 1∶16000, and 1∶32000) diluted in PBS containing 0.1% BSA was added. After incubation for 1.5 h at 25°C, the plates were washed. Subsequently, the plates were incubated for 1 h at 37°C with 10000-fold diluted HRP-anti-mIgG in PBS containing 0.1% BSA (100 µL/well). After another washing step, 100 µL/well of freshly prepared O-phenylenediamine (OPD) solution (0.4 mg/mL OPD and 0.012% H2O2 in 0.05 mol/L citrate-phosphate, pH 5.0) was added. The reaction was stopped with 2 mol/L sulfuric acid (50 µL/well) after an incubation of 15 min at room temperature keeping away from light. The absorbance was recorded at a primary wavelength of 492 nm with a reference wavelength of 630 nm.
as §1
The influence of several experimental parameters on assay characteristics was examined in order to improve the sensitivity of the immunoassay. Concentrations of coating antigen and dilutions of MAb were determined by checkerboard titration. Other different experimental parameters such as organic solvents, pH, ionic strength, and detergent in assay buffer, and blocking agents were studied sequentially in this order using the above described icELISA protocol. Each time an evaluated parameter was changed, the new value was used for the evaluation of the next condition. Criteria used to evaluate the assay performances were the absorbance of zero concentration of DBP (Amax) and IC50.

Where [6] appears, read: cross-reactivity study, hapten coated icELISA, mean ±SD of three replicates.
Setting [7] is: hapten coated icELISA, optimized conditions.
The mark [8] stands for this setting: conjugate coated icELISA, optimized conditions.

On to `CCCCOC(=O)c1ccc(NC(=O)CCC(=O)O)cc1C(=O)OCCCC` [DBCP], for which the “binding of MAb to hapten on polystyrene” value in experiment [1] is listed as “hardly bound”.

For the compound `CCOC(=O)c1ccccc1C(=O)OCC` [DEP, diethyl phthalate], in experiment [2] (hapten coated icELISA), the inhibition was found to be 5.08% inhibition at 10 mg/mL and the antibody recognition entry is “absence of recognition”.

For `CCCCCCCCOC(=O)c1ccccc1C(=O)OCCCCCCCC` [DOP, di(n-octyl) phthalate], in experiment [2] (hapten coated icELISA), the inhibition was determined as 1.15% inhibition at 10 mg/mL and the antibody recognition result is reported as “absence of recognition”.

Consider `CCCCOC(=O)c1ccccc1C(=O)OCc1ccccc1` [BBP, Butyl benzyl phthalate], for which the IC50 in experiment [2] (setting [6]) came out at 0.0721 ± 0.0142 µg/mL.

Regarding `CCCCOC(=O)c1ccc(N)cc1C(=O)OCCCC` [DBAP, dibutyl 4-aminophthalate], in experiment [2] (hapten coated icELISA), the “CR (cross-reactivity)” value is 27.8%. In addition, the IC50 in experiment [2] (setting [6]) is 0.0529 ± 0.0124 µg/mL.

For `CCCCC(CC)COC(=O)c1ccccc1C(=O)OCC(CC)CCCC` (stereo not drawn) [DEHP, di(2-ethylhexyl) phthalate], in experiment [2] (hapten coated icELISA), the inhibition turned out to be 1.12% inhibition at 10 mg/mL and the antibody recognition entry is “absence of recognition”.

For the compound `COC(=O)c1ccccc1C(=O)OC` [DMP, dimethyl phthalate], in experiment [2] (hapten coated icELISA), the inhibition is on record as 7.98% inhibition at 10 mg/mL and the antibody recognition entry was “absence of recognition”.

For the compound `CCCCOC(=O)c1ccccc1C(=O)OCCCC` [DBP, Dibutyl phthalate], the concentration for half-maximal inhibition (IC50) in experiment [3] was less than 5 µg/mL; in experiment [2] (setting [6]), 0.0147 ± 0.0028 µg/mL; in experiment [2] (hapten coated icELISA standard curve, optimized conditions (DBAP 1 µg/mL, MAb 1:1000)) it was 0.0146 µg/mL; in experiment [5] (assay buffer with 0% DMF (DMF series) in PBS containing 0.1% BSA, mean ±SD, three replicates), 0.369 ± 0.0274 µg/mL; in experiment [5] (assay buffer with 0% DMSO (DMSO series) in PBS containing 0.1% BSA, mean ±SD, three replicates) it was 0.392 ± 0.0702 µg/mL; in experiment [5] (assay buffer with 0% acetonitrile (acetonitrile series) in PBS containing 0.1% BSA, mean ±SD, three replicates), 0.471 ± 0.0306 µg/mL. In addition, the IC50 came to 0.797 ± 0.0198 µg/mL in experiment [5] (assay buffer with 0% dioxane (dioxane series) in PBS containing 0.1% BSA, mean ±SD, three replicates); 1.4 ± 0.0643 µg/mL in experiment [5] (assay buffer with 0% methanol (methanol series) in PBS containing 0.1% BSA, mean ±SD, three replicates); 0.303 ± 0.0302 µg/mL in experiment [5] (assay buffer with 5% DMF in PBS containing 0.1% BSA, mean ±SD, three replicates); 0.373 ± 0.0318 µg/mL in experiment [5] (assay buffer with 5% DMSO in PBS containing 0.1% BSA, mean ±SD, three replicates); 0.444 ± 0.0118 µg/mL in experiment [5] (assay buffer with 5% acetonitrile in PBS containing 0.1% BSA, mean ±SD, three replicates); 1.679 ± 0.271 µg/mL in experiment [5] (assay buffer with 5% dioxane in PBS containing 0.1% BSA, mean ±SD, three replicates). Besides, the IC50 in experiment [5] (assay buffer with 5% methanol in PBS containing 0.1% BSA, mean ±SD, three replicates) amounted to 0.637 ± 0.0671 µg/mL; in experiment [5] (assay buffer with 10% DMF in PBS containing 0.1% BSA, mean ±SD, three replicates) it was 0.223 ± 0.0118 µg/mL; in experiment [5] (assay buffer with 10% DMSO in PBS containing 0.1% BSA, mean ±SD, three replicates), 0.52 ± 0.0661 µg/mL; in experiment [5] (assay buffer with 10% acetonitrile in PBS containing 0.1% BSA, mean ±SD, three replicates), 0.325 ± 0.0088 µg/mL; in experiment [5] (assay buffer with 10% dioxane in PBS containing 0.1% BSA, mean ±SD, three replicates), 2.509 ± 0.504 µg/mL; in experiment [5] (assay buffer with 10% methanol in PBS containing 0.1% BSA, mean ±SD, three replicates) it was 0.624 ± 0.0145 µg/mL. Besides, the IC50 came to 0.345 ± 0.0175 µg/mL in experiment [5] (assay buffer with 20% DMF in PBS containing 0.1% BSA, mean ±SD, three replicates); 0.423 ± 0.053 µg/mL in experiment [5] (assay buffer with 20% DMSO in PBS containing 0.1% BSA, mean ±SD, three replicates); 0.428 ± 0.0112 µg/mL in experiment [5] (assay buffer with 20% acetonitrile in PBS containing 0.1% BSA, mean ±SD, three replicates); 2.191 ± 0.224 µg/mL in experiment [5] (assay buffer with 20% dioxane in PBS containing 0.1% BSA, mean ±SD, three replicates); 0.889 ± 0.0186 µg/mL in experiment [5] (assay buffer with 20% methanol in PBS containing 0.1% BSA, mean ±SD, three replicates); 0.106 µg/mL in experiment [5] (conjugate coated icELISA standard curve, optimized conditions (DBAP-BSA 0.25 µg/mL, MAb 1:8000)). Also, the “limit of detection (LOD)” value in experiment [4] (as stated by Zhang et al) is 0.02 µg/L. For the same compound, the “concentration causing 50% of the maximal fluorescence quenching” value in experiment [4] (maximum concentration used did not cause 50% quenching) is more than 1000 µg/L. Moreover, the “CR (cross-reactivity)” value in experiment [2] (hapten coated icELISA) stood at 100%. In addition, the “LOD (IC10)” value was found to be 0.000426 µg/mL in experiment [2] (setting [7]) and 0.0105 µg/mL in experiment [5] (setting [8]). Also, the “dynamic range (IC20–IC80)” value in experiment [2] (setting [7]) is 0.00174 to 0.123 µg/mL; in experiment [5] (setting [8]), 0.0252 to 0.445 µg/mL. The “IC50 (blocking agent optimization)” value in experiment [5] (OVA as a blocking reagent (Fig. 4D)) was 0.10813 ± 0.01952 µg/mL. Further, the “IC50 (lowest, pH optimization)” value in experiment [5] (assay buffer pH 6.8 (Fig. 4A)) is given as 177.04±15.37 ng/mL.
